Measured values: patent US12516064B2, “Tetrahydropyridopyrimidines and related analogs for inhibiting YAP/TAZ-TEAD” (THE KATHOLIEKE UNIVERSITEIT LEUVEN, priority 2022, dated 2026)

Legend:
Assay type in all cases: cell-based
[1] = tested on: YAP/TAZ-TEAD transcription; test: Reporter gene assay for measuring the inhibition of YAP/TAZ-TEAD transcription; conditions: Homo sapiens, HEK-293T; Hek293T cells transiently transfected with TEAD-responsive element luciferase reporter; 24 hours incubation
Description: Hek293T cells are cultured in DMEM supplemented with 10% fetal bovine serum, Sodium pyruvate, Sodium bicarbonate, L-glutamine. The cells are harvested and transiently transfected with TEAD-responsive element luciferase reporter. Transfected cells are plated in 384-wells plate containing pre-diluted compounds. After 24 hours incubation at 37° C./5% CO2, assay plates were cooled down to RT and levelled to an equal volume per well, prior to the addition of 25 uL luciferase substrate SteadyLite (Perkin Elmer)/well. The plate was shaken for 10 min at 600 rpm, centrifuged for 1 min at 500 rpm and measured with an Envision reader (PerkinElmer). The amount of relative light units produced by the TEAD reporter is used to calculated percent of inhibition.
The percent of reporter inhibition was calculated in the presence of a positive control inhibitor (100% inhibition) versus a condition with the presence of the vehicle basal activity of the reporter (0% inhibition). The ability of a test compound to inhibit this activity was determined as: Percentage inhibition=[1−((RLU determined in the presence of vehicle−RLU determined for sample with test compound present) divided by (RLU determined in the presence of vehicle−RLU determined for sample with positive control inhibitor))]*100 The activities of example compounds tested are depicted in Table 8. The activity ranges A, B and C refer to IC50 values in the reporter gene assay as follows: “A”: EC50<1 μM; “B”: 1 μM≤EC50≤3.0 μM and “C”: EC50>3.0 μM, NT=not tested.

[2] = tested on: NCI-H226; test: Mesothelioma cell line proliferation assay (NCI-H226); conditions: Homo sapiens, 144 h; NCI-H226 cells; 6 days with compound; cell viability by ATPlite
Description: (§1) Mesothelioma cell lines, NCI-H226 and NCI-H2052 (all sourced from the ATCC cell culture collection) are plated in 96-well plates (Corning® 96 Well White Polystyrene Microplate clear flat bottom, white polystyrene (TC-Treated)), at 1500 cells/well in full medium (RPMI 1640 ATCC modification with L-glutamine, HEPES, Phenol Red, Sodium Pyruvate, High glucose, Low sodium bicarbonate and 10% fetal bovine serum). Cells are incubated overnight at 37° C. in an incubator with 5% CO2. Then compounds, dissolved in DMSO, are added in dose-response. Cells are incubated with compound dilutions for another 6 days at 37° C. in an incubator with 5% CO2. Cell viability is quantitated using the ATPlite kit (Perkin-Elmer) and the luminescence is read-out using an Envision instrument (Perkin-Elmer). The amount of relative light units produced using the ATPlite kit is used to calculated percent of inhibition.
(§2) The activities of some example compounds are depicted in Table 9. The activity ranges A, B and C refer to EC50 values in the mesothelioma cell line proliferation assay as described as follows: “A”: EC50<1 μM; “B”: 1 μM≤EC50≤10 μM and “C”: EC50>10 μM; NT: not tested.

[3] = tested on: NCI-H2052; test: Mesothelioma cell line proliferation assay (NCI-H2052); conditions: Homo sapiens, 144 h; NCI-H2052 cells; 6 days with compound; cell viability by ATPlite
Description: as §1, §2

SMILES: C=CC(=O)N1Cc2nc(Cc3ccccc3)nc(-c3ccn(C)n3)c2C1 [Cpd. No. 20, 1-(2-benzyl-4-(1-methyl-1H-pyrazol-3-yl)-5,7-dihydro-6H-pyrrolo[3,4-d]pyrimidin-6-yl)prop-2-en-1-one]
- EC50 [1]: < 1000 nM
- EC50 [2]: < 1000 nM
- EC50 [3]: 1 to 10 µM

SMILES: C=CC(=O)N1CCc2c(nc(Cc3ccccc3)nc2-c2ccn(C)n2)C1 [Cpd. No. 32, 1-(2-benzyl-4-(1-methyl-1H-pyrazol-3-yl)-5,8-dihydropyrido[3,4-d]pyrimidin-7(6H)-yl)prop-2-en-1-one]
- EC50 [1]: < 1000 nM
- EC50 [2]: < 1000 nM
- EC50 [3]: < 1 µM

SMILES: C=CC(=O)N1CCc2c(nc(Cc3ccccc3)nc2-c2ccn(Cc3cccnc3)n2)C1 [Cpd. No. 35, 1-(2-benzyl-4-(1-(pyridin-3-ylmethyl)-1H-pyrazol-3-yl)-5,8-dihydropyrido[3,4-d]pyrimidin-7(6H)-yl)prop-2-en-1-one]
- EC50 [1]: < 1000 nM
- EC50 [2]: < 1000 nM
- EC50 [3]: 1 to 10 µM

SMILES: C=CC(=O)N1CCc2c(nc(-c3ccccc3)nc2-c2ccn(C)n2)C1 [Cpd. No. 39, 1-(4-(1-methyl-1H-pyrazol-3-yl)-2-phenyl-5,8-dihydropyrido[3,4-d]pyrimidin-7(6H)-yl)prop-2-en-1-one]
- EC50 [1]: < 1000 nM
- EC50 [2]: < 1000 nM
- EC50 [3]: 1 to 10 µM

SMILES: C=CC(=O)N1CCc2c(nc(Cc3cccc(F)c3)nc2-c2ccn(C)n2)C1 [Cpd. No. 43, 1-(2-(3-fluorobenzyl)-4-(1-methyl-1H-pyrazol-3-yl)-5,8-dihydropyrido[3,4-d]pyrimidin-7(6H)-yl)prop-2-en-1-one]
- EC50 [1]: < 1000 nM
- EC50 [2]: < 1000 nM
- EC50 [3]: 1 to 10 µM

SMILES: C=CC(=O)N1CCc2c(nc(Cc3cccc(C(F)(F)F)c3)nc2-c2ccn(C)n2)C1 [Cpd. No. 46, 1-(4-(1-methyl-1H-pyrazol-3-yl)-2-(3-(trifluoromethyl)benzyl)-5,8-dihydropyrido[3,4-d]pyrimidin-7(6H)-yl)prop-2-en-1-one]
- EC50 [1]: < 1000 nM
- EC50 [2]: < 1000 nM
- EC50 [3]: 1 to 10 µM

SMILES: C=CC(=O)N1CCc2c(nc(Cc3ccc(C(F)(F)F)cc3)nc2-c2ccn(Cc3cccnc3)n2)C1 [Cpd. No. 49, 1-(4-(1-(pyridin-3-ylmethyl)-1H-pyrazol-3-yl)-2-(4-(trifluoromethyl)benzyl)-5,8-dihydropyrido[3,4-d]pyrimidin-7(6H)-yl)prop-2-en-1-one]
- EC50 [1]: < 1000 nM
- EC50 [2]: < 1000 nM
- EC50 [3]: > 10 µM

SMILES: C=CC(=O)N1CCc2c(nc(-c3ccc(F)cc3)nc2-c2ccn(C)n2)C1 [Cpd. No. 51, 1-(2-(4-fluorophenyl)-4-(1-methyl-1H-pyrazol-3-yl)-5,8-dihydropyrido[3,4-d]pyrimidin-7(6H)-yl)prop-2-en-1-one]
- EC50 [1]: < 1000 nM
- EC50 [2]: < 1000 nM
- EC50 [3]: > 10 µM

SMILES: C=CC(=O)N1CCc2c(nc(-c3cccc(F)c3)nc2-c2ccn(C)n2)C1 [Cpd. No. 52, 1-(2-(3-fluorophenyl)-4-(1-methyl-1H-pyrazol-3-yl)-5,8-dihydropyrido[3,4-d]pyrimidin-7(6H)-yl)prop-2-en-1-one]
- EC50 [1]: < 1000 nM
- EC50 [2]: < 1000 nM
- EC50 [3]: 1 to 10 µM

SMILES: C=CC(=O)N1CCc2c(nc(-c3ccc(F)c(F)c3)nc2-c2ccn(C)n2)C1 [Cpd. No. 53, 1-(2-(3,4-difluorophenyl)-4-(1-methyl-1H-pyrazol-3-yl)-5,8-dihydropyrido[3,4-d]pyrimidin-7(6H)-yl)prop-2-en-1-one]
- EC50 [1]: < 1000 nM
- EC50 [2]: < 1000 nM
- EC50 [3]: 1 to 10 µM

SMILES: C=CC(=O)N1CCc2c(nc(-c3ccc(C(F)(F)F)cc3)nc2-c2ccn(C)n2)C1 [Cpd. No. 54, 1-(4-(1-methyl-1H-pyrazol-3-yl)-2-(4-(trifluoromethyl)phenyl)-5,8-dihydropyrido[3,4-d]pyrimidin-7(6H)-yl)prop-2-en-1-one]
- EC50 [1]: < 1000 nM
- EC50 [2]: < 1000 nM
- EC50 [3]: 1 to 10 µM

SMILES: C=CC(=O)N1CCc2c(nc(-c3cccc(C(F)(F)F)c3)nc2-c2ccn(C)n2)C1 [Cpd. No. 55, 1-(4-(1-methyl-1H-pyrazol-3-yl)-2-(3-(trifluoromethyl)phenyl)-5,8-dihydropyrido[3,4-d]pyrimidin-7(6H)-yl)prop-2-en-1-one]
- EC50 [1]: < 1000 nM
- EC50 [2]: < 1000 nM
- EC50 [3]: 1 to 10 µM

SMILES: C=CC(=O)N1CCc2c(nc(-c3ccccc3)nc2-c2ccn(C(F)F)n2)C1 [Cpd. No. 65, 1-(4-(1-(difluoromethyl)-1H-pyrazol-3-yl)-2-phenyl-5,8-dihydropyrido[3,4-d]pyrimidin-7(6H)-yl)prop-2-en-1-one]
- EC50 [1]: < 1000 nM
- EC50 [2]: 1000 to 10000 nM
- EC50 [3]: 1 to 10 µM

SMILES: C=CC(=O)N1CCc2c(nc(-c3ccc(C(F)(F)F)cc3)nc2-c2ccn(C(F)F)n2)C1 [Cpd. No. 69, 1-(4-(1-(difluoromethyl)-1H-pyrazol-3-yl)-2-(4-(trifluoromethyl)phenyl)-5,8-dihydropyrido[3,4-d]pyrimidin-7(6H)-yl)prop-2-en-1-one]
- EC50 [1]: < 1000 nM
- EC50 [2]: < 1000 nM
- EC50 [3]: 1 to 10 µM

SMILES: C=C(F)C(=O)N1CCc2c(nc(-c3ccc(C(F)(F)F)cc3)nc2-c2ccn(C)n2)C1 [Cpd. No. 71, 2-fluoro-1-(4-(1-methyl-1H-pyrazol-3-yl)-2-(4-(trifluoromethyl)phenyl)-5,8-dihydropyrido[3,4-d]pyrimidin-7(6H)-yl)prop-2-en-1-one]
- EC50 [1]: < 1000 nM
- EC50 [2]: < 1000 nM
- EC50 [3]: > 10 µM

SMILES: C=CC(=O)N1CCc2c(nc(-c3ccc(C(F)(F)F)cc3)nc2-c2ccn(CCOC)n2)C1 [Cpd. No. 73, 1-(4-(1-(2-methoxyethyl)-1H-pyrazol-3-yl)-2-(4-(trifluoromethyl)phenyl)-5,8-dihydropyrido[3,4-d]pyrimidin-7(6H)-yl)prop-2-en-1-one]
- EC50 [1]: < 1000 nM
- EC50 [2]: < 1000 nM
- EC50 [3]: 1 to 10 µM

SMILES: C/C=C/C(=O)N1CCc2c(nc(-c3ccc(C(F)(F)F)cc3)nc2-c2ccn(C)n2)C1 [Cpd. No. 74, (E)-1-(4-(1-methyl-1H-pyrazol-3-yl)-2-(4-(trifluoromethyl)phenyl)-5,8-dihydropyrido[3,4-d]pyrimidin-7(6H)-yl)but-2-en-1-one]
- EC50 [1]: < 1000 nM
- EC50 [2]: < 1000 nM
- EC50 [3]: 1 to 10 µM

SMILES: CCC(=O)N1CCc2c(nc(-c3ccc(C(F)(F)F)cc3)nc2-c2ccn(C)n2)C1 [Cpd. No. 85, 1-(4-(1-methyl-1H-pyrazol-3-yl)-2-(4-(trifluoromethyl)phenyl)-5,8-dihydropyrido[3,4-d]pyrimidin-7(6H)-yl)propan-1-one]
- EC50 [1]: < 1000 nM

SMILES: CCC(=O)N1CCc2c(nc(-c3ccc(C(F)(F)F)cc3)nc2-c2cn(C)nn2)C1 [Cpd. No. 91, 1-(4-(1-methyl-1H-1,2,3-triazol-4-yl)-2-(4-(trifluoromethyl)phenyl)-5,8-dihydropyrido[3,4-d]pyrimidin-7(6H)-yl)propan-1-one]
- EC50 [1]: 1000 to 3000 nM

SMILES: CCC(=O)N1CCc2c(nc(-c3ccc(C(F)(F)F)cc3)nc2-c2cnn(C)n2)C1 [Cpd. No. 93, 1-(4-(2-methyl-2H-1,2,3-triazol-4-yl)-2-(4-(trifluoromethyl)phenyl)-5,8-dihydropyrido[3,4-d]pyrimidin-7(6H)-yl)propan-1-one]
- EC50 [1]: 1000 to 3000 nM

SMILES: C/C=C/C(=O)N1CCc2c(nc(C3CCC(F)(F)CC3)nc2-c2ccn(C)n2)C1 [Cpd. No. 95, (E)-1-(2-(4,4-difluorocyclohexyl)-4-(1-methyl-1H-pyrazol-3-yl)-5,8-dihydropyrido[3,4-d]pyrimidin-7(6H)-yl)but-2-en-1-one]
- EC50 [1]: < 1000 nM
